Assay results: patent US11590116B2 (THERAVANCE BIOPHARMA R&D IP, LLC, priority 2019, dated 2023)

What was measured:
[1] = target: T1, recombinant human ALK5 (TGF-βR1) protein (Homo sapiens, UniProt P36897); assay: Biochemical ALK5 (TGF-βR1) assay to measure pKi (LANCE Ultra ULight kinase assay); conditions: apparent pKi from pIC50 by Cheng-Prusoff, read-out: ALK5 pKi (converted)
T1 construct: purchased Life Technologies PR9075A
T1 sequence (P36897 34-503): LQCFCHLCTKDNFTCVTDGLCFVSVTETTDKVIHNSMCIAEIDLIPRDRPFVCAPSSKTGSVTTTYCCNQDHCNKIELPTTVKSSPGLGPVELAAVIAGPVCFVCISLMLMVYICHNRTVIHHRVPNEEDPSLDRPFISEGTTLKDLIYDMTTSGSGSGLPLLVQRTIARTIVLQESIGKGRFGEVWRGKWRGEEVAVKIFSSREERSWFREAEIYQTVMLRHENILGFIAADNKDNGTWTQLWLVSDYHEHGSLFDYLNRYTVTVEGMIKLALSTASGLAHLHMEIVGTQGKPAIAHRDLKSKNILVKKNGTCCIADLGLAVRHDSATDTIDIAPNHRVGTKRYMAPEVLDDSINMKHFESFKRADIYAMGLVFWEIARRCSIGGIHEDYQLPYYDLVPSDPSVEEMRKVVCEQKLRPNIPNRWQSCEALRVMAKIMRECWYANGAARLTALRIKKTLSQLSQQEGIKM
Experimental: The assays were performed in a 384-well plate (24 columns×16 wells/rows). An Echo® 550 Liquid Handler (Labcyte) was used to prepare various intermediate concentrations of compounds of the present disclosure in 100% DMSO. From the intermediate concentrations, a range of concentrations (from 10 μM to 25 pM corresponding to volumes up to 105 nL) were prepared and ejected into a final assay plate to be used to create individual dose response curves for each of the subject compounds. To a separate column within the assay plate, 105 nL of DMSO in each well was used to establish a maximum assay signal.
With a multidrop dispenser, 8 μL of enzyme mixture (1.25× final) was added to each well. […] The plate was then sealed with an adhesive seal and allowed to equilibrate for 60 minutes at room temperature.
Next, 2 μL of 125 μM ATP (5× final, 125 μM ATP prepared in assay buffer with 2 mM DTT) was added to the incubated mixtures, covered with a MicroClime® Environmental Lid (Product No. LLS-0310, Labcyte) and immediately transferred to 37° C. The reactions were allowed to proceed at 37° C. for 60 minutes before terminating with the addition of 10 μL of detection antibody (LANCE® (lanthanide chelate excite) Ultra Europium-anti-phospo-DNA Topoisomerase 2-alpha (Thr1342)) in detection mixture (12 mM EDTA, 4 nM detection antibody prepared in detection buffer (50 mM Tris-HCl, 150 mM NaCl, 0.5% BSA (Fraction V), pH 7.0)) at room temperature. The plate was then read on a Perkin Elmer EnVision Plate Reader using europium specific reader settings with excitation and emission wavelengths set to 320 or 340 nm and 665 nm, respectively.
For dose-response analyses, percent inhibition versus compound concentrations were plotted, and pIC50 values were determined from a 4-parameter robust fit model with GraphPad Prism V5 Software (GraphPad Software, Inc., La Jolla, Calif.). This model obtains pIC50 values by fitting the sigmoidal dose-response (variable slope) equation to the data. Results were expressed as pIC50 (negative logarithm of IC50) and subsequently converted to pKi (negative logarithm of dissociate constant, K) using the Cheng-Prusoff equation. The higher the value of pKi (lower value of Ki), the greater the inhibition of ALK5 activity.

[2] = test system: TGF-β-stimulated SMAD3 phosphorylation in BEAS-2B cells; assay: Cellular ALK5 potency assay, inhibition of TGF-β stimulated pSMAD3 formation in BEAS-2B cells; type: cell-based; conditions: Homo sapiens; inhibition of TGF-β stimulated pSMAD3 formation, BEAS-2B cells; read-out: BEAS2B pIC50 (converted)
Experimental: The potency of compounds of the present disclosure for inhibition of TGF-β-stimulated SMAD3 phosphorylation was measured in BEAS-2B cells, a human lung epithelial cell line. TGF-β signals through activin receptor-like kinase 5 (ALK5) immediately prior to SMAD3 phosphorylation.
BEAS-2B cells were grown using 50% DMEM (Life Technologies) and 50% F-12 (Life Technologies) media, supplemented with 10% Fetal Bovine Serum (ATCC), 25 mM HEPES (Life Technologies), and 1× Pen-Strep (Life Technologies). Cells were cultured in a humidified incubator set at 37° C., 5% CO2, and trypsonized using 0.25% Trypsin with 0.5% polyvinylpyrrolidone (PVP).
For the assay, BEAS-2B cells were seeded at 7,500 cells/well (25 μL/well) in a 384-well plate and cultured overnight. Before dosing, growth media was aspirated and the wells were rinsed with HBSS Buffer (HBSS with Calcium and Magnesium, Life Technologies) supplemented with 25 mM HEPES (Life Technologies) and 1% Bovine Serum Albumin (Roche). Compounds were serially diluted in DMSO, then further diluted with supplemented HBSS Buffer (50 μL/well) to create a compound plate 3× of the final assay concentration, at 0.3% DMSO. The diluted compounds were then added to the cells (8 μL/well) and incubated at 37° C., 5% CO2 for 1 hour. After the compound incubation, TGF-β (R&D Systems) reconstituted in supplemented HBSS Buffer was added to the cells ([…], final concentration 10 ng/mL) and incubated for a further 30 minutes, after which the cells were immediately lysed with AlphaLISA lysis buffer (PerkinElmer). AlphaLISA Acceptor and Detector beads (PerkinElmer) were added 2 hours apart, then incubated overnight to be read the next day. The potency of the compound was determined through analysis of dose-dependent quantified changes in pSMAD3 signal from baseline (non-compound treated TGF-β stimulated cells). Data are expressed as pIC50 (negative decadic logarithm IC50) values.

Ki [1] | Compound | IC50 [2]
< 0.0316 nM | Cc1cccc(-c2[nH]nnc2-c2ccc3ncc(N4CCC(N(C)C)C4)cc3c2)n1 (racemic) [Compound 561, rac-(3S)-N,N-dimethyl-1-[6-[5-(6-methyl-2-pyridyl)-1H-triazol-4-yl]-3-quinolyl]pyrrolidin-3-amine] | 25.1 to 158 nM
< 0.0316 nM | Cc1nc(-c2n[nH]cc2-c2ccc3ncc(-c4cn[nH]c4)cc3c2)ccc1F [Compound 449, 6-[3-(5-fluoro-6-methyl-2-pyridyl)-1H-pyrazol-4-yl]-3-(1H-pyrazol-4-yl)quinoline] | < 20 nM
0.398 to 3.16 nM | Cc1cccc(-c2n[nH]cc2-c2ccc3ncc(-c4cn[nH]c4-c4cccc(C)n4)cc3n2)n1 [Compound 604, 2-[3-(6-methyl-2-pyridyl)-1H-pyrazol-4-yl]-7-[5-(6-methyl-2-pyridyl)-1H-pyrazol-4-yl]-1,5-naphthyridine] | 25.1 to 158 nM
0.0398 to 0.316 nM | Cc1cccc(-c2[nH]cnc2-c2ccc3ncc(N4CCNC(CC(=O)OC(C)C)C4)cc3c2)n1 (stereo not shown) [Compound 24, isopropyl 2-[4-[6-[5-(6-methyl-2-pyridyl)-1H-imidazol-4-yl]-3-quinolyl]piperazin-2-yl]acetate] | 25.1 to 158 nM
0.0398 to 0.316 nM | CNCc1c(-c2cn[nH]c2)cnc2ccc(-c3c[nH]nc3-c3cccc(C)n3)cc12 [Compound 471, N-methyl-1-[6-[3-(6-methyl-2-pyridyl)-1H-pyrazol-4-yl]-3-(1H-pyrazol-4-yl)-4-quinolyl]methanamine] | 25.1 to 158 nM
0.0398 to 0.316 nM | Cc1cccc(-c2[nH]cnc2-c2ccc3ncc(C(=O)OCCN4CCC5(CCNCC5)C4)cc3c2)n1 [Compound 896, 2-(2,8-diazaspiro[4.5]decan-2-yl)ethyl 6-(5-(6-methylpyridin-2-yl)-1H-imidazol-4-yl)quinoline-3-carboxylate] | 200 to 1260 nM
0.0398 to 0.316 nM | Cc1cccc(-c2[nH]cnc2-c2ccc3ncc(N4CCN(C)C(CC(=O)OCC5CNC5)C4)cc3c2)n1 (stereo not shown) [Compound 640, azetidin-3-ylmethyl 2-[1-methyl-4-[6-[5-(6-methyl-2-pyridyl)-1H-imidazol-4-yl]-3-quinolyl]piperazin-2-yl]acetate] | 1580 to 10000 nM
< 0.0316 nM | Cc1cccc(-c2[nH]cnc2-c2ccc3ncc(C4=CCC(NC(C)C)CC4)cc3n2)n1 (stereo not shown) [Compound 258, N-isopropyl-4-(6-(5-(6-methylpyridin-2-yl)-1H imidazol-4-yl)-1,5-naphthyridin-3-yl)cyclohex-3-en-1-amine] | 25.1 to 158 nM
0.0398 to 0.316 nM | Cc1cccc(-c2[nH]cnc2-c2ccc3ncc(N4CCC(C(=O)OC5CCNCC5)CC4)cc3c2)n1 [Compound 701, piperidin-4-yl 1-(6-(5-(6-methylpyridin-2-yl)-1H-imidazol-4-yl)quinolin-3-yl)piperidine-4-carboxylate] | 200 to 1260 nM
0.0398 to 0.316 nM | COC(=O)CC1CN(CCNc2cnc3ccc(-c4nc[nH]c4-c4cccc(C)n4)cc3c2)CCN1 (stereo not shown) [Compound 322, methyl 2-[4-[2-[[6-[5-(6-methyl-2-pyridyl)-1H-imidazol-4-yl]-3-quinolyl]amino]ethyl]piperazin-2-yl]acetate] | 200 to 1260 nM
0.0398 to 0.316 nM | Cc1cccc(-c2[nH]cnc2-c2ccc3ncc(NC(=O)CC4CNC4)cc3c2)n1 [Compound 255, 2-(azetidin-3-yl)-N-[6-[5-(6-methyl-2-pyridyl)-1H-imidazol-4-yl]-3-quinolyl]acetamide] | 200 to 1260 nM
0.0398 to 0.316 nM | Cc1nc(-c2n[nH]cc2-c2ccc3ncc(-c4ncc5n4CCN5)cc3n2)ccc1F [Compound 174, 7-(2,3-dihydro-1H-imidazo[1,2-c]imidazol-5-yl)-2-[3-(5-fluoro-6-methyl-2-pyridyl)-1H-pyrazol-4-yl]-1,5-naphthyridine] | 200 to 1260 nM
0.0398 to 0.316 nM | C=C(CN1CCNCC1)c1cnc2ccc(-c3nc[nH]c3-c3cccc(C)n3)cc2c1 [Compound 256, 6-[5-(6-methyl-2-pyridyl)-1H-imidazol-4-yl]-3-[1-(piperazin-1-ylmethyl)vinyl]quinoline] | 25.1 to 158 nM
0.0398 to 0.316 nM | Cc1cccc(-c2n[nH]cc2-c2ccc3nccc(CNCCN4CCN(C(C)C)CC4)c3n2)n1 [Compound 820, 2-(4-isopropylpiperazin-1-yl)-N-[[6-[3-(6-methyl-2-pyridyl)-1H-pyrazol-4-yl]-1,5-naphthyridin-4-yl]methyl]ethanamine] | 25.1 to 158 nM
0.0398 to 0.316 nM | Cc1cccc(-c2n[nH]cc2-c2ccc3ncc(C(=O)NCCCN4CCOCC4)cc3n2)n1 [Compound 109, 6-[3-(6-methyl-2-pyridyl)-1H-pyrazol-4-yl]-N-(3-morpholinopropyl)-1,5-naphthyridine-3-carboxamide] | 25.1 to 158 nM
0.0398 to 0.316 nM | Cc1cccc(-c2nnn(Cc3ccccc3)c2-c2ccc3ncc(-c4cn[nH]c4)cc3c2)n1 [Compound 254, 6-[3-benzyl-5-(6-methyl-2-pyridyl)triazol-4-yl]-3-(1H-pyrazol-4-yl)quinoline] | 25.1 to 158 nM
0.0398 to 0.316 nM | Cc1cccc(-c2n[nH]cc2-c2ccc3ncc(C(N)=O)cc3n2)n1 [Compound 607, 6-[3-(6-methyl-2-pyridyl)-1H-pyrazol-4-yl]-1,5-naphthyridine-3-carboxamide] | 25.1 to 158 nM
0.398 to 3.16 nM | Cc1cccc(-c2[nH]cnc2-c2ccc3ncc(C(=O)OCCN4CC5(CCCNC5)C4)cc3c2)n1 [Compound 890, 2-(2,6-diazaspiro[3.5]nonan-2-yl)ethyl 6-(5-(6-methylpyridin-2-yl)-1H-imidazol-4-yl)quinoline-3-carboxylate] | 200 to 1260 nM
0.0398 to 0.316 nM | Cc1cccc(-c2nc3ccccn3c2-c2ccc3ncc(-c4cnc5n4CCNC5)cc3n2)n1 [Compound 524, 2-[2-(6-methyl-2-pyridyl)imidazo[1,2-a]pyridin-3-yl]-7-(5,6,7,8-tetrahydroimidazo[1,2-a]pyrazin-3-yl)-1,5-naphthyridine] | 25.1 to 158 nM
0.0398 to 0.316 nM | Cc1cccc(-c2[nH]cnc2-c2ccc3ncc(C(=O)OCCN4CCN5CCCC5C4)cc3c2)n1 (stereo not shown) [Compound 1067, 2-(3,4,6,7,8,8a-hexahydro-1H-pyrrolo[1,2-a]pyrazin-2-yl)ethyl 6-[5-(6-methyl-2-pyridyl)-1H-imidazol-4-yl]quinoline-3-carboxylate] | 25.1 to 158 nM
